The record followed here is US11078193B2 (priority 2014, dated 2021).

A short description of data set [1]: ATP based toxicity assay (ATPlite), HepG2 cell line. Conditions: human, HepG2 cells, ATPlite (ATP levels). As to the method: Alternatively, cytotoxicity was determined via an ATP-assay: The ATPlite kit from Perkin Elmer was used to assess compound cytotoxicity on the HepG2 cell line by determination of the ATP (adenosine triphosphate) levels. ATP is a marker for functional integrity and cell viability, because it is present in all metabolically active cells and any form of cell injury will result in a rapid decline in cellular ATP concentration. After compound incubation, 1 volume of ATPlite solution was added to the cells and the luminescence signal was measured.
Background: ATP-based viability assays read luminescence as a measure of living cells.

The subject of another data set is HBV. Nature of the data set: anti HBV activity, HepG2.117 inducibly HBV producing cell line (Tet-off), intracellular HBV DNA by realtime PCR. Conditions: Hepatitis B virus, 72 h, HepG2.117 cells, 3 days of treatment. It is filed as cell-based.

As usually defined, the CC50 is the concentration giving 50% cytotoxicity. A high value points to better tolerance by the cells. Broadly, the EC50 is the concentration that produces a half-maximal response.

`Cn1cc(S(=O)(=O)NC(C)(C)C(F)(F)F)c(F)c1C(=O)Nc1ccnc(C(F)F)c1F` [Compound 201, N-[2-(difluoromethyl)-3-fluoro-4-pyridyl]-3-fluoro-1-methyl-4-[(2,2,2-trifluoro-1,1-dimethyl-ethyl)sulfamoyl]pyrrole-2-carboxamide] displayed a CC50 at 4 days in data set [1] of more than 25000 nM. Further, the EC50 with HBV is 30 nM.
The like results for `Cn1cc(S(=O)(=O)NC(C)(C)C(F)(F)F)c(F)c1C(=O)Nc1ccnc(C(F)F)c1` [Compound 190, N-[2-(difluoromethyl)-4-pyridyl]-3-fluoro-1-methyl-4-[(2,2,2-trifluoro-1,1-dimethyl-ethyl)sulfamoyl]pyrrole-2-carboxamide] were, in that order, more than 25000 nM and 50 nM.
For `Cn1cc(S(=O)(=O)NC(C)(C)C(F)(F)F)c(F)c1C(=O)Nc1ccnc(Br)c1` [Compound 191, N-(2-bromo-4-pyridyl)-3-fluoro-1-methyl-4-[(2,2,2-trifluoro-1,1-dimethyl-ethyl)sulfamoyl]pyrrole-2-carboxamide], the CC50 at 4 days in data set [1] was more than 25000 nM. A half-maximal response in the data set with HBV (EC50) required 60 nM.
With `Cn1cc(S(=O)(=O)NC2CCC2(F)F)c(F)c1C(=O)Nc1ccnc(Cl)c1` (stereo not drawn) [Compound 174, N-(2-chloro-4-pyridyl)-4-[(2,2-difluorocyclobutyl)sulfamoyl]-3-fluoro-1-methyl-pyrrole-2-carboxamide], the 50% cytotoxic concentration (CC50) at 4 days in data set [1] is more than 25000 nM. In the data set on HBV, this compound returned an EC50 of 110 nM.
The like results for `Cn1cc(S(=O)(=O)NC2(C(F)(F)F)CC2)c(F)c1C(=O)Nc1cc(F)nc(F)c1` [Compound 193, N-(2,6-difluoro-4-pyridyl)-3-fluoro-1-methyl-4-[[1-(trifluoromethyl)cyclopropyl]sulfamoyl]pyrrole-2-carboxamide] were, in that order, more than 25000 nM and 9 nM.
Taken in the same sequence, the figures for `Cn1cc(S(=O)(=O)NC2(C(F)(F)F)COC2)c(F)c1C(=O)Nc1ccnc(Cl)c1F` [Compound 212, N-(2-chloro-3-fluoro-4-pyridyl)-3-fluoro-1-methyl-4-[[3-(trifluoromethyl)oxetan-3-yl]sulfamoyl]pyrrole-2-carboxamide] were more than 25000 nM and 60 nM.
Taken in the same sequence, the figures for `Cn1cc(S(=O)(=O)NC2(C)CC(F)(F)C2)c(F)c1C(=O)Nc1cc(Cl)nc(Cl)c1` [Compound 136, N-(2,6-dichloro-4-pyridyl)-4-[(3,3-difluoro-1-methyl-cyclobutyl)sulfamoyl]-3-fluoro-1-methyl-pyrrole-2-carboxamide] were 9500 nM and 20 nM.
With `Cn1cc(S(=O)(=O)NC2(C(F)(F)F)COC2)c(F)c1C(=O)Nc1ccnc(Cl)c1` [Compound 198], the CC50 at 4 days in data set [1] was more than 25000 nM. Also, in the data set on HBV, the EC50 turned out to be 90 nM.
Taken in the same sequence, the figures for `Cn1cc(S(=O)(=O)NC2(C(F)(F)F)COC2)c(F)c1C(=O)Nc1ccnc(C(F)F)c1F` [Compound 208, N-[2-(difluoromethyl)-3-fluoro-4-pyridyl]-3-fluoro-1-methyl-4-[[3-(trifluoromethyl)oxetan-3-yl]sulfamoyl]pyrrole-2-carboxamide] were more than 25000 nM and 40 nM.
The like results for `Cn1cc(S(=O)(=O)NC(C)(C)C(F)(F)F)c(F)c1C(=O)Nc1ccnc(C#N)c1` [Compound 188, N-(2-cyano-4-pyridyl)-3-fluoro-1-methyl-4-[(2,2,2-trifluoro-1,1-dimethyl-ethyl)sulfamoyl]pyrrole-2-carboxamide] were, in that order, more than 25000 nM and 100 nM.
Taken in the same sequence, the figures for `Cn1cc(S(=O)(=O)NC2(C(F)(F)F)COC2)c(F)c1C(=O)Nc1ccnc(C(F)F)c1` [Compound 210] were more than 25000 nM and 70 nM.
Turning to `Cn1cc(S(=O)(=O)NC2(C(F)(F)F)CC2)c(F)c1C(=O)Nc1ccnc(Br)c1F` [Compound 203, N-(2-bromo-3-fluoro-4-pyridyl)-3-fluoro-1-methyl-4-[[1-(trifluoromethyl)cyclopropyl]sulfamoyl]pyrrole-2-carboxamide], the CC50 at 4 days in data set [1] is more than 25000 nM. Besides, a half-maximal response with HBV (EC50) required 8 nM.
`C[C@@H](NS(=O)(=O)c1cn(C)c(C(=O)Nc2ccnc(C(F)F)c2F)c1F)C(F)(F)F` [Compound 202, N-[2-(difluoromethyl)-3-fluoro-4-pyridyl]-3-fluoro-1-methyl-4-[[(1R)-2,2,2-trifluoro-1-methyl-ethyl]sulfamoyl]pyrrole-2-carboxamide]: in data set [1], the CC50 at 4 days is more than 25000 nM. In the data set on HBV, this compound returned an EC50 of 8 nM.
In data set [1], `Cn1cc(S(=O)(=O)NC2(C)CC(F)(F)C2)c(F)c1C(=O)Nc1ccnc(C#N)c1F` [Compound 197, N-(2-cyano-3-fluoro-4-pyridyl)-4-[(3,3-difluoro-1-methyl-cyclobutyl)sulfamoyl]-3-fluoro-1-methyl-pyrrole-2-carboxamide] showed a CC50 at 4 days of more than 25000 nM. Besides, a half-maximal response in the data set with HBV (EC50) required 10 nM.
Compound `Cc1c(S(=O)(=O)N[C@H](C)C(F)(F)F)c(F)c(C(=O)Nc2ccnc(Br)c2)n1C` [Compound 205, N-(2-bromo-4-pyridyl)-3-fluoro-1,5-dimethyl-[[(1R)-2,2,2-trifluoro-1-methyl-ethyl]sulfamoyl]pyrrole-2-carboxamide] had a CC50 at 4 days in data set [1] of more than 25000 nM. In addition, the EC50 in the data set with HBV was 20 nM.
Compound `Cn1cc(S(=O)(=O)NC(C)(C)C(F)(F)F)c(F)c1C(=O)Nc1cc(F)nc(F)c1` [Compound 189, N-(2,6-difluoro-4-pyridyl)-3-fluoro-1-methyl-4-[(2,2,2-trifluoro-1,1-dimethyl-ethyl)sulfamoyl]pyrrole-2-carboxamide] gave a CC50 at 4 days in data set [1] of more than 25000 nM. This compound returned an EC50 with HBV of 60 nM.
The like results for `Cn1cc(S(=O)(=O)NC2(C(F)(F)F)CC2)c(F)c1C(=O)Nc1ccnc(C#N)c1` [Compound 192, N-(2-cyano-4-pyridyl)-3-fluoro-1-methyl-4-[[1-(trifluoromethyl)cyclopropyl]sulfamoyl]pyrrole-2-carboxamide] were, in that order, more than 25000 nM and 20 nM.
Taken in the same sequence, the figures for `Cn1cc(S(=O)(=O)NC2(C(F)(F)F)CC2)c(F)c1C(=O)Nc1ccnc(Br)c1` [Compound 194, N-(2-bromo-4-pyridyl)-3-fluoro-1-methyl-4-[[1-(trifluoromethyl)cyclopropyl]sulfamoyl]pyrrole-2-carboxamide] were more than 25000 nM and 20 nM.
The like results for `Cn1cc(S(=O)(=O)NC2(C(F)(F)F)CC2)c(F)c1C(=O)Nc1ccnc(C(F)F)c1F` [Compound 195, N-[2-(difluoromethyl)-3-fluoro-4-pyridyl]-3-fluoro-1-methyl-4-[[1-(trifluoromethyl)cyclopropyl]sulfamoyl]pyrrole-2-carboxamide] were, in that order, more than 25000 nM and 20 nM.
With `Cn1cc(S(=O)(=O)NC2(C(F)(F)F)COC2)c(F)c1C(=O)Nc1ccnc(Br)c1` [Compound 209, N-(2-bromo-4-pyridyl)-3-fluoro-1-methyl-4-[[3-(trifluoromethyl)oxetan-3-yl]sulfamoyl]pyrrole-2-carboxamide], in data set [1], the CC50 at 4 days was more than 25000 nM. The compound further showed an EC50 in the data set with HBV of 90 nM.
As to `C[C@@H](NS(=O)(=O)c1cn(C)c(C(=O)Nc2cc(F)nc(Cl)c2)c1F)C(F)(F)F` [Compound 215, N-(2-chloro-6-fluoro-4-pyridyl)-3-fluoro-1-methyl-4-[[(1R)-2,2,2-trifluoro-1-methyl-ethyl]sulfamoyl]pyrrole-2-carboxamide], the CC50 at 4 days in data set [1] was more than 25000 nM. The concentration for a half-maximal effect (EC50) with HBV was determined as 6 nM.
Taken in the same sequence, the figures for `Cc1cc(NC(=O)c2c(F)c(S(=O)(=O)N[C@H](C)C(F)(F)F)cn2C)cc(Cl)n1` [Compound 213, N-(2-chloro-6-methyl-4-pyridyl)-3-fluoro-1-methyl-4-[[(1R)-2,2,2-trifluoro-1-methyl-ethyl]sulfamoyl]pyrrole-2-carboxamide] were more than 25000 nM and 50 nM.
Taken in the same sequence, the figures for `C[C@@H](NS(=O)(=O)c1cn(C)c(C(=O)Nc2ccnc(CF)c2)c1Cl)C(F)(F)F` [Compound 145, 3-chloro-N-[2-(fluoromethyl)-4-pyridyl]-1-methyl-4-[[(1R)-2,2,2-trifluoro-1-methyl-ethyl]sulfamoyl]pyrrole-2-carboxamide] were more than 25000 nM and 80 nM.
The like results for `Cn1cc(S(=O)(=O)NC2CCN(CC(F)(F)F)CC2)c(F)c1C(=O)Nc1ccnc(Cl)c1` [Compound 217, N-(2-chloro-4-pyridyl)-3-fluoro-1-methyl-4-[[1-(2,2,2-trifluoroethyl)-4-piperidyl]sulfamoyl]pyrrole-2-carboxamide] were, in that order, more than 25000 nM and 460 nM.
`Cn1cc(S(=O)(=O)NC2(C)CC(F)(F)C2)c(Cl)c1C(=O)Nc1ccnc(C#N)c1F` [Compound 162, 3-chloro-N-(2-cyano-3-fluoro-4-pyridyl)-4-[(3,3-difluoro-1-methyl-cyclobutyl)sulfamoyl]-1-methyl-pyrrole-2-carboxamide] registered a CC50 at 4 days in data set [1] of more than 25000 nM. In addition, in the data set with HBV, a half-maximal response (EC50) required 20 nM.
In data set [1], `Cn1cc(S(=O)(=O)NC2(C(F)(F)F)CC2)c(F)c1C(=O)Nc1ccnc(C(F)F)c1` [Compound 196, N-[2-(difluoromethyl)-4-pyridyl]-3-fluoro-1-methyl-4-[[1-(trifluoromethyl)cyclopropyl]sulfamoyl]pyrrole-2-carboxamide] returned a CC50 at 4 days of more than 25000 nM. This compound gave a concentration giving a half-maximal response (EC50) in the data set with HBV of 20 nM.
Taken in the same sequence, the figures for `Cc1c(S(=O)(=O)N[C@H](C)C(F)(F)F)c(F)c(C(=O)Nc2ccnc(C(F)F)c2)n1C` [Compound 206, N-[2-(difluoromethyl)-4-pyridyl]-3-fluoro-1,5-dimethyl-4-[[(1R)-2,2,2-trifluoro-1-methyl-ethyl]sulfamoyl]pyrrole-2-carboxamide] were more than 25000 nM and 20 nM.
